From patent publication EP3782997A1, “FUSED PYRIMIDINE COMPOUNDS AND PHARMACEUTICAL COMPOSITIONS THEREOF FOR THE TREATMENT OF FIBROTIC DISEASES” (Galapagos N.V., priority 2019, dated 2021)

Biological target: hENPP2 (Homo sapiens, UniProt Q13822)
Experiment: Human ENPP2 (hENPP2) biochemical assay using LPC as substrate
Conditions: 150 µM LPC (palmitoyl 16:0), 37°C for 30 min
Outline: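 IC50 came from compound series (top 50 µM, 1/3 steps) incubated 30 min at 37°C with 1 or 3 µg/mL final enzyme and palmitoyl LPC added at 150 µM, pH 8.5 Tris buffer with Ca2+. Choline output measured as quinoneimine dye at 555 nm via coupled oxidase/HRP/TOOS detection.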

| Compound | IC50 |
| --- | --- |
| Cc1cc(C)cc(Nc2ncc3c(n2)CN(C2CCN(C(=O)c4ccc5[nH]c(=O)sc5c4)CC2)C3)c1 [compound 69, 6-[4-[2-(3,5-dimethylanilino)-5,7-dihydropyrrolo[3,4-d]pyrimidin-6-yl]piperidine-1-carbonyl]-3H-1,3-benzothiazol-2-one] | 0.01 to 100 nM |
| Cc1cc(C)cc(Nc2ncc3c(n2)CN(C2CN(C(=O)c4ccc5[nH]c(=O)sc5c4)C2)C3)c1 [compound 70, 6-[3-[2-(3,5-dimethylanilino)-5,7-dihydropyrrolo[3,4-d]pyrimidin-6-yl]azetidine-1-carbonyl]-3H-1,3-benzothiazol-2-one] | 0.01 to 100 nM |
| Cc1cc(C)cc(Nc2ncc3c(n2)CN(C2CCN(C(=O)c4ccc(NS(C)(=O)=O)cc4)CC2)C3)c1 [compound 72, N-[4-[4-[2-(3,5-dimethylanilino)-5,7-dihydropyrrolo[3,4-d]pyrimidin-6-yl]piperidine-1-carbonyl]phenyl]methanesulfonamide] | > 1000 nM |
| Cc1cc(C)cc(Nc2ncc3c(n2)CN([C@H]2CCN(C(=O)c4ccc5[nH]nnc5c4)[C@@H](C)C2)C3)c1 [compound 74, 1H-benzotriazol-5-yl-[(2S,4S)-4-[2-(3,5-dimethylanilino)-5,7-dihydropyrrolo[3,4-d]pyrimidin-6-yl]-2-methyl-1-piperidyl]methanone] | 0.01 to 100 nM |
| Cc1cc(C)cc(Nc2ncc3c(n2)CCCN(C2CCN(C(=O)c4ccc5nn[nH]c5c4)CC2)C3)c1 [compound 75, 3H-benzotriazol-5-yl-[4-[2-(3,5-dimethylanilino)-5,7,8,9-tetrahydropyrimido[5,4-c]azepin-6-yl]-1-piperidyl]methanone] | > 1000 nM |
| Cc1cc(C)cc(Nc2ncc3c(n2)CN(C2[C@@H]4C[C@H]2CN(C(=O)c2ccc5[nH]nnc5c2)C4)C3)c1 (stereo partly drawn) [compound 78, 1H-benzotriazol-5-yl-[(1R,5S)-6-[2-(3,5-dimethylanilino)-5,7-dihydropyrrolo[3,4-d]pyrimidin-6-yl]-3-azabicyclo[3.1.1]heptan-3-yl]methanone] | 0.01 to 100 nM |
| Cc1cc(C)cc(Nc2ncc3c(n2)CN(C2CN(C(=O)c4cc5[nH]nnc5cc4F)C2)C3)c1 [compound 80, [3-[2-(3,5-dimethylanilino)-5,7-dihydropyrrolo[3,4-d]pyrimidin-6-yl]azetidin-1-yl]-(6-fluoro-3H-benzotriazol-5-yl)methanone] | 0.01 to 100 nM |
| Cc1cc(C)cc(Nc2ncc3c(n2)CN(C2CN(C(=O)c4cc5nn[nH]c5cc4F)CC2C)C3)c1 (centres unmarked) [compound 82, [3-[2-(3,5-dimethylanilino)-5,7-dihydropyrrolo[3,4-d]pyrimidin-6-yl]-4-methyl-pyrrolidin-1-yl]-(6-fluoro-1H-benzotriazol-5-yl)methanone] | 100 to 500 nM |
| COc1cc2[nH]nnc2cc1C(=O)N1CC(C)C(N2Cc3cnc(Nc4cc(C)cc(C)c4)nc3C2)C1 (centres unmarked) [compound 83, [3-[2-(3,5-dimethylanilino)-5,7-dihydropyrrolo[3,4-d]pyrimidin-6-yl] -4-methyl-pyrrolidin-1-yl]-(6-methoxy-1H-benzotriazol-5-yl)methanone] | 100 to 500 nM |
| COc1cc2[nH]nnc2cc1C(=O)N1CC(C)C(N2CCc3nc(Nc4cc(C)cc(C)c4)ncc3C2)C1 (centres unmarked) [compound 88, [3-[2-(3,5-dimethylanilino)-7,8-dihydro-5H-pyrido[4,3-d]pyrimidin-6-yl]-4-methyl-pyrrolidin-1-yl]-(6-methoxy-1H-benzotriazol-5-yl)methanone] | 0.01 to 100 nM |
| Cc1cc(C)cc(Nc2ncc3c(n2)CN([C@H]2CCN(C(=O)c4ccc5[nH]nnc5c4)[C@H](C)C2)C3)c1 [compound 92, 1H-benzotriazol-5-yl-[(2R,4S)-4-[2-(3,5-dimethylanilino)-5,7-dihydropyrrolo[3,4-d]pyrimidin-6-yl]-2-methyl-1-piperidyl]methanone] | 0.01 to 100 nM |
| Cc1cc(C)cc(Nc2ncc3c(n2)CN([C@@H]2CCN(C(=O)c4ccc5[nH]nnc5c4)[C@@H](C)C2)C3)c1 [compound 93, 1H-benzotriazol-5-yl-[(2S,4R)-4-[2-(3,5-dimethylanilino)-5,7-dihydropyrrolo[3,4-d]pyrimidin-6-yl]-2-methyl-1-piperidyl]methanone] | 0.01 to 100 nM |
| Cc1cc(C)cc(Nc2ncc3c(n2)CCCN(C2CN(C(=O)c4ccc5[nH]nnc5c4)C2)C3)c1 [compound 94, 1H-benzotriazol-5-yl-[3-[2-(3,5-dimethylanilino)-5,7,8,9-tetrahydropyrimido[5,4-c]azepin-6-yl]azetidin-1-yl]methanone] | > 1000 nM |
| Cc1cc(C)cc(Nc2ncc3c(n2)CCN([C@@H]2CCN(C(=O)c4ccc5[nH]nnc5c4)[C@H](C)C2)C3)c1 [compound 98, 1H-benzotriazol-5-yl-[(2R,4R)-4-[2-(3,5-dimethylanilino)-7,8-dihydro-5H-pyrido[4,3-d]pyrimidin-6-yl]-2-methyl-1-piperidyl]methanone] | 100 to 500 nM |
| COc1cc2[nH]nnc2cc1C(=O)N1CCC(N2Cc3cnc(Nc4cc(C)cc(C)c4)nc3C2)CC1 [compound 106, [4-[2-(3,5-dimethylanilino)-5,7-dihydropyrrolo[3,4-d]pyrimidin-6-yl]-1-piperidyl]-(6-methoxy-1H-benzotriazol-5-yl)methanone] | 0.01 to 100 nM |
| COc1cc2[nH]nnc2cc1C(=O)N1CC[C@@H](N2Cc3cnc(Nc4cc(C)cc(C)c4)nc3C2)C[C@@H]1C [compound 112, [(2S,4R)-4-[2-(3,5-dimethylanilino)-5,7-dihydropyrrolo[3,4-d]pyrimidin-6-yl]-2-methyl-1-piperidyl]-(6-methoxy-1H-benzotriazol-5-yl)methanone] | 0.01 to 100 nM |
| Cc1cc(C)cc(Nc2ncc3c(n2)CN(C2CC4CCC(C2)N4C(=O)c2ccc4[nH]nnc4c2)C3)c1 (centres unmarked) [compound 114, 1H-benzotriazol-5-yl-[3-[2-(3,5-dimethylanilino)-5,7-dihydropyrrolo[3,4-d]pyrimidin-6-yl]-8-azabicyclo[3.2.1]octan-8-yl]methanone] | 100 to 500 nM |

Now from value to compound:

| IC50 | Compound |
| --- | --- |
| 0.01 to 100 nM | Cc1cc(C)cc(Nc2ncc3c(n2)CN([C@@H]2CCN(C(=O)c4ccc5[nH]nnc5c4)[C@H](C)C2)C3)c1 [compound 73, 1H-benzotriazol-5-yl-[(2R,4R)-4-[2-(3,5-dimethylanilino)-5,7-dihydropyrrolo[3,4-d]pyrimidin-6-yl]-2-methyl-1-piperidyl]methanone] |
| 100 to 500 nM | Cc1cc(C)cc(Nc2ncc3c(n2)CN(C2CN(C(=O)c4ccc5nn[nH]c5c4)CC2C)C3)c1 (centres unmarked) [compound 77, 3H-benzotriazol-5-yl-[3-[2-(3,5-dimethylanilino)-5,7-dihydropyrrolo[3,4-d]pyrimidin-6-yl]-4-methyl-pyrrolidin-1-yl]methanone] |
| 0.01 to 100 nM | Cc1cc(C)cc(Nc2ncc3c(n2)CN(C2CCN(C(=O)c4cc5[nH]nnc5cc4F)CC2)C3)c1 [compound 79, [4-[2-(3,5-dimethylanilino)-5,7-dihydropyrrolo[3,4-d]pyrimidin-6-yl]-1-piperidyl]-(6-fluoro-3H-benzotriazol-5-yl)methanone] |
| 0.01 to 100 nM | COc1cc2[nH]nnc2cc1C(=O)N1CC(N2Cc3cnc(Nc4cc(C)cc(C)c4)nc3C2)C1 [compound 81, [3-[2-(3,5-dimethylanilino)-5,7-dihydropyrrolo[3,4-d]pyrimidin-6-yl]azetidin-1-yl]-(6-methoxy-1H-benzotriazol-5-yl)methanone] |
| 100 to 500 nM | Cc1cc(C)cc(Nc2ncc3c(n2)CN(C2=C(C#N)CN(C(=O)c4ccc5nn[nH]c5c4)C2)C3)c1 [compound 85, 1-(3H-benzotriazole-5-carbonyl)-4-[2-(3,5-dimethylanilino)-5,7-dihydropyrrolo[3,4-d]pyrimidin-6-yl]-2,5-dihydropyrrole-3-carbonitrile] |
| 0.01 to 100 nM | Cc1cc(C)cc(Nc2ncc3c(n2)CCN(C2CN(C(=O)c4ccc5nn[nH]c5c4)CC2C)C3)c1 (centres unmarked) [compound 87, 3H -benzotriazol-5-yl-[3-[2-(3,5-dimethylanilino)-7,8-dihydro-5H-pyrido[4,3-d]pyrimidin-6-yl] -4-methyl-pyrrolidin-1-yl]methanone] |
| 0.01 to 100 nM | Cc1cc(C)cc(Nc2ncc3c(n2)C(C)(C)N(C2CN(C(=O)c4ccc5[nH]nnc5c4)C2)C3)c1 [compound 95, 1H-benzotriazol-5-yl-[3-[2-(3,5-dimethylanilino)-7,7-dimethyl-5H-pyrrolo[3,4-d]pyrimidin-6-yl]azetidin-1-yl]methanone] |
| 0.01 to 100 nM | COc1cc2[nH]nnc2cc1C(=O)N1CC[C@@H](N2Cc3cnc(Nc4cc(C)cc(C)c4)nc3C2)C[C@H]1C [compound 105, [(2R,4R)-4-[2-(3,5-dimethylanilino)-5,7-dihydropyrrolo[3,4-d]pyrimidin-6-yl]-2-methyl-1-piperidyl]-(6-methoxy-1H-benzotriazol-5-yl)methanone] |
| 0.01 to 100 nM | Cc1cc(C)cc(Nc2ncc3c(n2)CN(C2CCN(C(=O)c4ccc5[nH]nnc5c4)C(C(F)(F)F)C2)C3)c1 (centres unmarked) [compound 107, 1H-benzotriazol-5-yl-[4-[2-(3,5-dimethylanilino)-5,7-dihydropyrrolo[3,4-d]pyrimidin-6-yl]-2-(trifluoromethyl)-1-piperidyl]methanone] |
| 0.01 to 100 nM | Cc1cc(C)cc(Nc2ncc3c(n2)CCN(C2CCN(C(=O)c4ccc5[nH]nnc5c4)CC2)CC3)c1 [compound 109, 1H-benzotriazol-5-yl-[4-[2-(3,5-dimethylanilino)-5,6,8,9-tetrahydropyrimido[4,5-d]azepin-7-yl]-1-piperidyl]methanone] |
| 0.01 to 100 nM | COc1cc2[nH]nnc2cc1C(=O)N1CC[C@H](N2Cc3cnc(Nc4cc(C)cc(C)c4)nc3C2)C[C@@H]1C [compound 113, [(2S,4S)-4-[2-(3,5-dimethylanilino)-5,7-dihydropyrrolo[3,4-d]pyrimidin-6-yl]-2-methyl-1-piperidyl]-(6-methoxy-1H-benzotriazol-5-yl)methanone] |
| 0.01 to 100 nM | Cc1cc(C)cc(Nc2ncc3c(n2)CN([C@H]2CCN(C(=O)c4cc5nn[nH]c5cc4F)[C@H](C)C2)C3)c1 [compound 116, [(2R,4S)-4-[2-(3,5-dimethylanilino)-5,7-dihydropyrrolo[3,4-d]pyrimidin-6-yl]-2-methyl-1-piperidyl]-(6-fluoro-1H-benzotriazol-5-yl)methanone] |
